28 molecules from patent publication US20260297092A1, “PYRAZOLOPYRIMIDINE DERIVATIVES AS INHIBITORS OF NLRP3” (Takeda Pharmaceutical Company Limited, priority 2023, published 2026) can be followed below.

Test [1] concerns TNF-α (NF-κB pathway, THP-1 cells). Briefly: TNF-α Assay (IC50). The test is classed as cell-based, human. As to conditions: Homo sapiens, 600 ng/mL LPS, 3 hours. In short, it runs like this:
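THP-1 cells differentiated to macrophages with 25 ng/mL IFN for 24 h, plated 40,000/well in serum-free medium, preincubated with compounds 30 min at 37 °C, then stimulated with 600 ng/mL LPS for 3 h. Supernatant TNF-α measured by ELISA; IC50 from four-parameter logistic fit, 100% inhibition defined by TPCA-1.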

The test system of test [2] is NLRP3 inflammasome (IL-1β production in THP-1 cells). Briefly: IL-1β TR-FRET Assay (percentage of inhibition at 300 nM, 6 μM or 10 μM). As to conditions: Homo sapiens, LPS priming, ATP activation; for inhibition at 6 µM: THP-1, 6 μM, read-out: IL-1β inhibitory rate at 6 μM (%); for inhibition at 0.3 µM: THP-1, 300 nM, read-out: IL-1β inhibitory rate at 300 nM (%). The test is classed as cell-based, human. In outline: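 THP-1 cells were differentiated with 25 ng/mL IFN-γ for 24 h, primed with 50 ng/mL LPS in serum-free medium for 24 h, then given compound for 30 min before 20 mM ATP for 2 h. Supernatant IL-1β was measured by HTRF after 16-24 h at room temperature. Inhibition was normalized between DMSO (high) and 3 μM MCC-950 (low).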
Background: TR-FRET usually uses a lanthanide donor and a delayed reading to cut background.

A word on the IC50: it is the concentration at which inhibition is half-maximal. Low values mean higher potency, high ones lower potency. With `CCOc1nc2nn(-c3c(C)cc(C4CC4)nc3C(F)(F)F)cc2c(=O)[nH]1` [Example 303, 2-[6-cyclopropyl-4-methyl-2-(trifluoromethyl)pyridin-3-yl]-6-ethoxy-2,5-dihydro-4H-pyrazolo[3,4-d]pyrimidin-4-one], in test [1], the half-maximal inhibitory concentration (IC50) was more than 30 µM. Besides, the inhibition at 6 µM in test [2] was 100%.
In turn, `Cc1ccc(-n2cc3c(=O)[nH]c(OC4CC5(COC5)C4)nc3n2)c(C)c1` [Example 199, 2-(2,4-dimethylphenyl)-6-[(2-oxaspiro[3.3]heptan-6-yl)oxy]-2,5-dihydro-4H-pyrazolo[3,4-d]pyrimidin-4-one] displayed an IC50 in test [1] of more than 30 µM. In test [2], the inhibition at 0.3 µM was found to be 52%.
In turn, `CCOc1nc2nn(-c3c(C)cc(OC(F)F)nc3C)cc2c(=O)[nH]1` [Example 226, 2-[6-(difluoromethoxy)-2,4-dimethylpyridin-3-yl]-6-ethoxy-2,5-dihydro-4H-pyrazolo[3,4-d]pyrimidin-4-one] registered an IC50 in test [1] of more than 30 µM. For the same molecule, the inhibition at 6 µM in test [2] was 106%.
Molecule `O=c1[nH]c(C2CC2)nc2nn(-c3c(F)cc(C4CC4)cc3C(F)F)cc12` [Example 173, 6-cyclopropyl-2-[4-cyclopropyl-2-(difluoromethyl)-6-fluorophenyl]-2,5-dihydro-4H-pyrazolo[3,4-d]pyrimidin-4-one] returned a half-maximal inhibitory concentration (IC50) in test [1] of more than 30 µM. Moreover, the inhibition at 0.3 µM in test [2] amounted to 108%.
The like results for `COCc1nc2nn(-c3c(C)ccc(C)c3O)cc2c(=O)[nH]1` [Example 53, 2-(2-hydroxy-3,6-dimethylphenyl)-6-(methoxymethyl)-2,5-dihydro-4H-pyrazolo[3,4-d]pyrimidin-4-one] were, in that order, more than 30 µM and 95%.
The corresponding values for `CCOc1nc2nn(-c3ccc(CC)cc3O)c(C)c2c(=O)[nH]1` [Example 49, 6-ethoxy-2-(4-ethyl-2-hydroxyphenyl)-3-methyl-2,5-dihydro-4H-pyrazolo[3,4-d]pyrimidin-4-one] are more than 30 µM and 98%.
For the molecule `Cc1ccc(-n2nc3nc(OCC(C)(F)F)[nH]c(=O)c3c2C)c(O)c1` [Example 91, 6-(2,2-difluoropropoxy)-2-(2-hydroxy-4-methylphenyl)-3-methyl-2,5-dihydro-4H-pyrazolo[3,4-d]pyrimidin-4-one], in test [1], the IC50 was more than 30 µM. Besides, the inhibition at 0.3 µM in test [2] is 76%.
Consider `Cc1cc(C2CC2)cc(C(F)F)c1-n1cc2c(=O)[nH]c(C3COCCO3)nc2n1` (racemic) [Example 316, 2-[4-cyclopropyl-2-(difluoromethyl)-6-methylphenyl]-6-(1,4-dioxan-2-yl)-2,5-dihydro-4H-pyrazolo[3,4-d]pyrimidin-4-one], for which, in test [1], the concentration for half-maximal inhibition (IC50) is more than 30 µM. Moreover, the inhibition at 6 µM in test [2] stood at 104%.
`Cc1ccc(C)c(-n2cc3c(=O)[nH]c(-c4ccncn4)nc3n2)c1O` [Example 41, 2-(2-hydroxy-3,6-dimethylphenyl)-6-(pyrimidin-4-yl)-2,5-dihydro-4H-pyrazolo[3,4-d]pyrimidin-4-one] returned an IC50 in test [1] of more than 30 µM. Also, the inhibition at 0.3 µM in test [2] stood at 99%.
On to `COC1(c2nc3nn(-c4c(C)cc(C5CC5)cc4C)cc3c(=O)[nH]2)CC1` [Example 266, 2-(4-cyclopropyl-2,6-dimethylphenyl)-6-(1-methoxycyclopropyl)-2,5-dihydro-4H-pyrazolo[3,4-d]pyrimidin-4-one], for which the concentration for half-maximal inhibition (IC50) in test [1] is more than 30 µM. Moreover, the inhibition at 6 µM in test [2] came out at 98%.
Regarding `CCOc1nc2nn(-c3c(F)cc(C4CC4)cc3C(F)(F)F)cc2c(=O)[nH]1` [Example 117, 2-[4-cyclopropyl-2-fluoro-6-(trifluoromethyl)phenyl]-6-ethoxy-2,5-dihydro-4H-pyrazolo[3,4-d]pyrimidin-4-one], the IC50 in test [1] was more than 30 µM. Moreover, the inhibition at 0.3 µM in test [2] stood at 100%.
The like results for `CCOc1nc2nn(-c3c(O)cc(C)cc3OC(F)F)cc2c(=O)[nH]1` [Example 116, 2-[2-(difluoromethoxy)-6-hydroxy-4-methylphenyl]-6-ethoxy-2,5-dihydro-4H-pyrazolo[3,4-d]pyrimidin-4-one] were, in that order, more than 30 µM and 96%.
The corresponding values for `Cc1cc(C)c(-n2cc3c(=O)[nH]c(C4CCCCO4)nc3n2)c(O)c1C` (centres unmarked) [Example 81, 2-(2-hydroxy-3,4,6-trimethylphenyl)-6-(oxan-2-yl)-2,5-dihydro-4H-pyrazolo[3,4-d]pyrimidin-4-one] are more than 30 µM and 97%.
The like results for `CCOc1nc2nn(-c3c(F)cc(OC)cc3CC(F)(F)F)cc2c(=O)[nH]1` [Example 162, 6-ethoxy-2-[2-fluoro-4-methoxy-6-(2,2,2-trifluoroethyl)phenyl]-2,5-dihydro-4H-pyrazolo[3,4-d]pyrimidin-4-one] were, in that order, more than 30 µM and 97%.
As for `COc1nc2nn(-c3c(C)cc(Br)cc3C)cc2c(=O)[nH]1` [Example 138, 2-(4-bromo-2,6-dimethylphenyl)-6-methoxy-2,5-dihydro-4H-pyrazolo[3,4-d]pyrimidin-4-one], in test [1], the IC50 was more than 30 µM. Moreover, the inhibition at 0.3 µM in test [2] worked out at 93%.
The corresponding values for `CCOc1nc2nn(-c3c(F)cc(C4CC4)cc3C(F)F)cc2c(=O)[nH]1` [Example 110, 2-[4-cyclopropyl-2-(difluoromethyl)-6-fluorophenyl]-6-ethoxy-2,5-dihydro-4H-pyrazolo[3,4-d]pyrimidin-4-one] are more than 30 µM and 99%.
`CCOc1nc2nn(-c3c(C)cc(Br)cc3C)cc2c(=O)[nH]1` [Example 131, 2-(4-bromo-2,6-dimethylphenyl)-6-ethoxy-2,5-dihydro-4H-pyrazolo[3,4-d]pyrimidin-4-one] had a concentration for half-maximal inhibition (IC50) in test [1] of more than 30 µM. Further, the inhibition at 0.3 µM in test [2] amounted to 100%.
In test [1], `COCc1nc2nn(-c3c(F)cc(C4CC4)cc3C(F)F)cc2c(=O)[nH]1` [Example 308, 2-[4-cyclopropyl-2-(difluoromethyl)-6-fluorophenyl]-6-(methoxymethyl)-2,5-dihydro-4H-pyrazolo[3,4-d]pyrimidin-4-one] had an IC50 of more than 30 µM. Also, in test [2], the inhibition at 6 µM was 103%.
In test [1], `CCOc1nc2nn(-c3ccc(C)cc3F)cc2c(=O)[nH]1` [Example 113, 6-ethoxy-2-(2-fluoro-4-methylphenyl)-2,5-dihydro-4H-pyrazolo[3,4-d]pyrimidin-4-one] had an IC50 of more than 30 µM. For the same molecule, the inhibition at 0.3 µM in test [2] came out at 67%.
`Cc1cc(C)c(-n2cc3c(=O)[nH]c(CCC(C)(F)F)nc3n2)c(O)c1` [Example 40, 6-(3,3-difluorobutyl)-2-(2-hydroxy-4,6-dimethylphenyl)-2,5-dihydro-4H-pyrazolo[3,4-d]pyrimidin-4-one] came in with a half-inhibitory concentration (IC50) in test [1] of more than 30 µM. The inhibition at 0.3 µM in test [2] turned out to be 100%.
As to `Cc1cc(C2CC2)cc(C)c1-n1cc2c(=O)[nH]c(OCC(F)F)nc2n1` [Example 285, 2-(4-cyclopropyl-2,6-dimethylphenyl)-6-(2,2-difluoroethoxy)-2,5-dihydro-4H-pyrazolo[3,4-d]pyrimidin-4-one], in test [1], the half-inhibitory concentration (IC50) is more than 30 µM. The inhibition at 6 µM in test [2] was found to be 100%.
In the case of `Cc1cc(C)c(-n2cc3c(=O)[nH]c(-c4ccncn4)nc3n2)c(O)c1` [Example 2, 2-(2-hydroxy-4,6-dimethylphenyl)-6-(pyrimidin-4-yl)-2,5-dihydro-4H-pyrazolo[3,4-d]pyrimidin-4-one], in test [1], the half-maximal inhibitory concentration (IC50) was more than 30 µM. In addition, the inhibition at 0.3 µM in test [2] is 100%.
The like results for `CCOc1cc(F)c(-n2cc3c(=O)[nH]c(OCC)nc3n2)c(Br)c1` [Example 158, 2-(2-bromo-4-ethoxy-6-fluorophenyl)-6-ethoxy-2,5-dihydro-4H-pyrazolo [3,4-d]pyrimidin-4-one] were, in that order, more than 30 µM and 99%.
The like results for `Cc1cc(C)c(-n2cc3c(=O)[nH]c(C(C)(C)C)nc3n2)c(O)c1` [Example 71, 6-tert-butyl-2-(2-hydroxy-4,6-dimethylphenyl)-2,5-dihydro-4H-pyrazolo[3,4-d]pyrimidin-4-one] were, in that order, 1.69 µM and 96%.
The corresponding values for `Cc1cc(C2CC2)cc(C)c1-n1cc2c(=O)[nH]c(COC(F)F)nc2n1` [Example 224, 2-(4-cyclopropyl-2,6-dimethylphenyl)-6-[(difluoromethoxy)methyl]-2,5-dihydro-4H-pyrazolo[3,4-d]pyrimidin-4-one] are more than 30 µM and 104%.
Regarding `CCOc1nc2nn(-c3c(C)cc(OC(F)F)cc3CC(F)(F)F)cc2c(=O)[nH]1` [Example 168, 2-[4-(difluoromethoxy)-2-methyl-6-(2,2,2-trifluoroethyl)phenyl]-6-ethoxy-2,5-dihydro-4H-pyrazolo[3,4-d]pyrimidin-4-one], the half-inhibitory concentration (IC50) in test [1] was more than 30 µM. Moreover, in test [2], the inhibition at 0.3 µM was found to be 98%.
On to `CCOc1nc2nn(-c3c(C)cc(CC)cc3F)cc2c(=O)[nH]1` [Example 122, 6-ethoxy-2-(4-ethyl-2-fluoro-6-methylphenyl)-2,5-dihydro-4H-pyrazolo[3,4-d]pyrimidin-4-one], for which the IC50 in test [1] was more than 30 µM. Moreover, the inhibition at 0.3 µM in test [2] came to 99%.
Consider `C=Cc1cc(C)c(-n2cc3c(=O)[nH]c(OCC)nc3n2)c(F)c1` [Example 120, 2-(4-ethenyl-2-fluoro-6-methylphenyl)-6-ethoxy-2,5-dihydro-4H-pyrazolo[3,4-d]pyrimidin-4-one], for which, in test [1], the concentration for half-maximal inhibition (IC50) is more than 30 µM. Further, the inhibition at 0.3 µM in test [2] worked out at 101%.
